One assay concerns the target Cdk1/cycB (UniProt P06493). Briefly: Cdk1/cycB kinase assay, histone H1 substrate. In kind it is biochemical, starfish. The following applies: Table 4; read-out: Cdk1, activity (IC50 for kinase inhibition). The protocol: The inhibition of Cdk1 can be determined as follows: Cdk1/cycB: Cdk1/cycB are obtained from ProQinase, Freiburg, Germany. Starfish oocytes are induced to enter M phase of the cell cycle with 10 μM 1-methyladenine and frozen in liquid nitrogen and stored at −80° C. […] Briefly, the supernatant from oocytes is equilibrated for 30 min at 4° C. under constant rotation with the p9^CKShs-sepharose beads. The beads are extensively washed and active cdk1/cycB kinase is eluted with purified p9^CKShs (3 mg/ml). […] The assay is carried with slight modifications in 96-well plates at ambient temperature for 20 min. […] The reaction is terminated by addition of 25 μl 0.05 M EDTA pH 7.0. An aliquot of 40 μl is spotted with a multichannel dispenser on Immobilon P membranes mounted in a Millipore Microtiter filter manifold connected to a low vacuum source. After elimination of liquid, the membrane is transferred to a sequence of 4 washing baths containing 0.5% H3PO4 and one with EtOH (shaking incubation for 10 min each), dried, mounted onto a Hewlett Packard TopCount manifold added 10 μl Microscint® and counted. […] Cells were seeded at 2.5×10^7 cells per 150 mm dish and allowed to attach to a 150 mm dish for 1 hr at RT. Media (SF900II containing 10% FBS) is aspirated and recombinant baculovirus; GST-C-Raf-1, v-Ras and v-Src are added at MOI of 3.0, 2.5 and 2.5 receptively in a total volume of 4-5 mL. Cells are incubated for 1 hr at RT and then 15 mL of medium is added. Infected cells are incubated for 48-72 hr at 27° C. Infected Sf21 cells are scraped and collected into a 50 mL tube and centrifuged for 10 min at 4° C. at 1100 g in a Sorvall centrifuge. The cell pellet is washed once with ice cold PBS and lysed with 0.6 mL lysis buffer per 2.5×10^7 cells. Complete lysis of cells is achieved after 10 min on ice with occasional pipetting. […] GST-c-Raf-1 was allowed to bind to the beads at 4° C. for 1 hr with rocking. Bound GST-c-Raf-1 with beads was transferred to a column. The column is washed once with lysis buffer and twice with ice cold Tris buffered saline. Ice cold elution buffer is added and column flow is stopped to allow the free glutathione to disrupt the interaction of GST-c-Raf-1 with glutathione sepharose beads. Fractions (1 mL) are collected into pre-chilled tubes. Each tube contains 10% glycerol (final concentration) to maintain kinase activity during freeze thaw cycles. Purified fractions of GST-c-Raf-1 kinase protein are stored at −80° C.

In assay [1] the target is T1, human insulin receptor (Ins-R) (Homo sapiens, UniProt P06213).
T1 construct: encoding the amino acid region 919-1343 of the intra-cytoplasmic kinase domain of the human insulin receptor; made in house; host or cells: baculovirus (Bac-to-Bac)
Description: Ins-R tyrosine kinase assay, GST-Ins-R. It counts as biochemical. The following applies: Table 4; read-out: Ins-R, activity (IC50 for kinase inhibition). From the text: The inhibition of IGF-1R and Ins-R can be determined as follows: The baculovirus donor vector pfbgx3IGFIRcd is used to generate a recombinant baculovirus that expresses the amino acid region 950-1337 of the mature peptide cytoplasmic domain of the human IGF-IR. To generate the cDNA fragment encoding the amino acid region 919-1343 of the intra-cytoplasmic kinase domain of the human insulin receptor, pC5hInsR is used. The fragments of the human IGF-IR and Ins-R are cloned, expressed and small-scale purified as a factor Xa-cleavable glutathione-S-transferase (GST)-fusion protein using the Bac-to-Bac™ system (GIBCO BRL) of recombinant baculovirus generation. Virus containing media is collected from the transfected cell culture and used for infection to increase its titer. Virus containing media obtained after two rounds of infection is used for large-scale protein expression. Cell extracts are prepared and loaded onto a glutathione-Sepharose (Pharmacia) column. After washing, the GST-tagged proteins are then eluted with a glutathione-containing buffer. Purified protein is stored at −70° C. in elution buffer. Tyrosine protein kinase assays with purified GST-IGF-1R and GST-ins-R are carried in a final volume of 30 μl containing 20 mM Tris-HCl, pH 7.6, 10 mM MgCl2, 0.01 mM Na3VO4, 1% DMSO, 1 mM DTT, 3 μg/ml poly(Glu,Tyr) 4:1 and 10 μM ATP (γ-[^33P]-ATP 0.1 μCi). The assay is performed in 96-well plates at ambient temperature for 20 min and terminated by addition of 25 μl 0.05 M EDTA pH 7.0. An aliquot of 40 μl is spotted with a multichannel dispenser on Whatman P81 membranes mounted in a Millipore Microtiter filter manifold connected to a low vacuum source. After elimination of liquid, the membrane is transferred to a sequence of 4 washing baths containing 0.5% H3PO4 and one with EtOH (shaking incubation for 10 min each), dried, mounted onto a Hewlett Packard TopCount manifold added 10 μl Microscint® and counted. Compounds of formula (I) show up to 90% inhibition of Ins-R at 10,000 nM, preferably between 60-90% inhibition. The inhibition of Tek can be determined as follows: The procedure of the expression, purification and assay these kinases has been described. Fabbro et al., Pharmacol. Ther. 82(2-3) 293-301 (1999). In brief, the glutathione S-transferase (GST) gene from the pAcG1 vector (Pharmingen) is excised with EcoRV and EcoRI and inserted into the cloning site of the Fast-Bac baculoviral vector (GIBCO) creating a 5530 bp vector with N-terminal cloning sites derived from the pAcG1 fusion vector (FBG0). The C-terminal cloning site may be any cloning site (from the Fast-Bac vector) downstream of the N-terminal cloning site used. N-terminally GST-fused (pAcG1, Pharmingen) KDR, Flt-1, Flk-1, Tek and PDGFR-β kinase domains are obtained from ProQinase, Freiburg, Germany. Tek is recloned into the FBG1 vector by EcoRI excision and ligation into EcoRI digested FBG1 (FBG1-Tek). The coding sequences for the whole cytoplasmic domain of c-Kit (aa 544-976) and c-Fms (aa 538-972) are amplified by PCR from human uterus and from human bone marrow cDNA libraries (Clontech), respectively. The amplified DNA fragments are fused to GST by cloning them into FBG1 as BamHI-EcoRI insertions, to yield FBG1-c-Kit and FBG1-c-Fms. Tek is recloned into the FBG0 transfer vector by EcoRI excision and ligation into EcoRI digested FBG0 (FBG-Tie2/Tek). FGFR-1 and c-met kinase domains are obtained by PCR from human A431 cells. N-terminal primers contain an overhanging EcoRI site, while C-terminal primers contain a XhoI site to aid cloning into the transfer vectors. After digestion of both the PCR fragments and FBG0 the cleavage products are gel-purified and ligated together to form the kinase constructs (FBG-Met, FBG-FGFR-1).

A further assay concerns the target T2, human RET (Homo sapiens, UniProt P07949).
T2 construct: fused on or other part: N-terminal GST tag (pFB-GSTX3 vector)
Briefly: RET kinase inhibition, GST-wtRET or GST-RET-Men2B, 33P incorporation into poly(Glu,Tyr). It counts as biochemical. As to conditions: Table 4. The procedure:
The inhibition of RET is measured as follows: The baculovirus donor vector pFB-GSTX3 is used to generate a recombinant baculovirus that expresses the amino acid region 658-1072 (Swiss prot No. Q9BTB0) of the intra-cytoplasmic kinase domain of human RET-Men2A which corresponds to the wild-type kinase domain of RET (wtRET) and RET-Men2B, which differs from the wtRET by the activating mutation in the activation loop M918T. The coding sequences for the cytoplasmic domain of wtRET and RET-Men2B are amplified by PCR from the plasmids pBABEpuro RET-Men2A and pBABEpuro RET-Men2B. The amplified DNA fragments and the pFB-GSTX3 vector are made compatible for ligation by digestion with SalI and KpnI. Ligation of these DNA fragments results in the baculovirus donor plasmid pFB-GX3-RET-Men2A and pFB-GX3-RET-Men2B, respectively. Production of virus: Transfer vectors containing the kinase domains are transfected into the DH10Bac cell line (GIBCO) and plated on selective agar plates. Colonies without insertion of the fusion sequence into the viral genome (carried by the bacteria) are blue. Single, white colonies are picked and viral DNA (bacmid) are isolated from the bacteria by standard plasmid purification procedures. Sf9 cells or Sf21 (American Type Culture Collection) cells are then transfected in 25 cm^2 flasks with the viral DNA using Cellfectin reagent. Determination of small scale protein expression in Sf9 cells: Virus-containing media is collected from the transfected cell culture and used for infection to increase its titer. Virus-containing media obtained after two rounds of infection is used for large-scale protein expression. For large-scale protein expression 100 cm^2 round tissue culture plates are seeded with 5×10^7 cells/plate and infected with 1 mL of virus-containing media (approximately 5 MOIs). After 3 days, the cells are scraped off the plate and centrifuged at 500 rpm for 5 minutes. Cell pellets from 10-20, 100 cm^2 plates, are re-suspended in 50 mL of ice-cold lysis buffer (25 mM tris-HCl, pH 7.5, 2 mM EDTA, 1% NP-40, 1 mM DTT, 1 mM P MSF). The cells are stirred on ice for 15 minutes and then centrifuged at 5,000 rpms for 20 minutes. Purification of GST-tagged proteins: The centrifuged cell lysate is loaded onto a 2 mL glutathione-sepharose column (Pharmacia) and is washed 3× with 10 mL of 25 mM tris-HCl, pH 7.5, 2 mM EDTA, 1 mM DTT, 200 mM NaCl. The GST-tagged proteins are then eluted by 10 applications (1 mL each) of 25 mM tris-HCl, pH 7.5, 10 mM reduced-glutathione, 100 mM NaCl, 1 mM DTT, 10% glycerol and stored at −70° C. Measure of enzyme activity: Tyrosine protein kinase assays with either purified GST-wtRET or GST-RET-Men2B protein are carried out in a final volume of 30 μL containing 15 ng of either GST-wtRET or GST-RET-Men2B protein, 20 mM tris-HCl, pH 7.5, 1 mM MnCl2, 10 mM MgCl2, 1 mM DTT, 3 μg/mL poly(Glu,Tyr) 4:1, 1% DMSO, 2.0 μM ATP (γ-[^33P]-ATP 0.1 μCi). The activity is assayed in the presence or absence of inhibitors, by measuring the incorporation of ^33P from [γ^33P] ATP into poly(Glu,Tyr) 4:1. The assay is carried out in 96-well plates at ambient temperature for 15 minutes under conditions described below and terminated by the addition of 20 μL of 125 mM EDTA. Subsequently, 40 μL of the reaction mixture are transferred onto Immobilon-PVDF membrane (Millipore) previously soaked for 5 minutes with methanol, rinsed with water, then soaked for 5 minutes with 0.5% H3PO4 and mounted on vacuum manifold with disconnected vacuum source. After spotting all samples, vacuum is connected and each well-rinsed with 200 μL 0.5% H3PO4. Membranes are removed and washed 4× on a shaker with 1.0% H3PO4, once with ethanol. Membranes are counted after drying at ambient temperature, mounting in Packard TopCount 96-well frame, and addition of 10 μL/well of Microscint™ (Packard). IC50 values are calculated by linear regression analysis of the percentage inhibition of each compound in duplicate, at 4 concentrations (usually 0.01, 0.1, 1 and 10 μM). […]

The target of the next assay is T3, c-Abl kinase (Homo sapiens, UniProt P00519).
T3 construct: The His-tagged kinase domain of c-Abl is cloned and expressed in the baculovirus/Sf9 system; His; made in house; host or cells: Sf9 (baculovirus)
T3 sequence (P00519 242-493 limits assumed): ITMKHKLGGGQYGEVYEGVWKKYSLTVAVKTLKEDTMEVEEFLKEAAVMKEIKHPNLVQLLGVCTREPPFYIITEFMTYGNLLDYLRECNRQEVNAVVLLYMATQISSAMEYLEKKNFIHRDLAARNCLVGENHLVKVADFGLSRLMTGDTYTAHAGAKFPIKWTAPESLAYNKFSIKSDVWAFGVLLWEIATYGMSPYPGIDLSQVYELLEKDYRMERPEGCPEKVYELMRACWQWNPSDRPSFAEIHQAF
Description: c-Abl protein-tyrosine kinase filter binding assay. In kind it is biochemical. The protocol:
The His-tagged kinase domain of c-Abl is cloned and expressed in the baculovirus/Sf9 system as described by Bhat et al. in J. Biol. Chem. 1997; 272:16170-16175. A protein of 37 kD (c-Abl kinase) is purified by a two-step procedure over a Cobalt metal chelate column followed by an anion exchange column with a yield of 1-2 mg/L of Sf9 cells (Bhat et al., reference cited). The purity of the c-Abl kinase is >90% as judged by SDS-PAGE after Coomassie blue staining. The assay contains (total volume of 30 μL): c-Abl kinase (50 ng), 20 mM Tris.HCl, pH 7.5, 10 mM MgCl2, 10 μM Na3VO4, 1 mM DTT and 0.06 μCi/assay [γ^33 P]-ATP (5 μM ATP) using 30 μg/mL poly-Ala,Glu,Lys,Tyr-6:2:5:1 (Poly-AEKY, Sigma P1152) in the presence of 1% DMSO. Reactions are terminated by adding 10 μL of 250 mM EDTA and 30 μL of the reaction mixture is transferred onto Immobilon-PVDF membrane (Millipore, Bedford, Mass., USA) previously soaked for 5 min with methanol, rinsed with water, then soaked for 5 min with 0.5% H3PO4 and mounted on vacuum manifold with disconnected vacuum source. After spotting all samples, vacuum is connected and each well rinsed with 200 μL 0.5% H3PO4. Membranes are removed and washed on a shaker with 0.5% H3PO4 (4 times) and once with ethanol. Membranes are counted after drying at ambient temperature, mounting in Packard TopCount 96-well frame, and addition of 10 μL/well of Microscint™ (Packard).

From patent publication US20090099167A1, “Organic compounds” (Novartis Institutes for Biomedical Research, priority 2004, published 2009) come the findings set out here.

pIC50: −log10 of the molar value. Bounds are passed on as bounds.

T2 sequence (P07949 1-1072 isoform P07949-2): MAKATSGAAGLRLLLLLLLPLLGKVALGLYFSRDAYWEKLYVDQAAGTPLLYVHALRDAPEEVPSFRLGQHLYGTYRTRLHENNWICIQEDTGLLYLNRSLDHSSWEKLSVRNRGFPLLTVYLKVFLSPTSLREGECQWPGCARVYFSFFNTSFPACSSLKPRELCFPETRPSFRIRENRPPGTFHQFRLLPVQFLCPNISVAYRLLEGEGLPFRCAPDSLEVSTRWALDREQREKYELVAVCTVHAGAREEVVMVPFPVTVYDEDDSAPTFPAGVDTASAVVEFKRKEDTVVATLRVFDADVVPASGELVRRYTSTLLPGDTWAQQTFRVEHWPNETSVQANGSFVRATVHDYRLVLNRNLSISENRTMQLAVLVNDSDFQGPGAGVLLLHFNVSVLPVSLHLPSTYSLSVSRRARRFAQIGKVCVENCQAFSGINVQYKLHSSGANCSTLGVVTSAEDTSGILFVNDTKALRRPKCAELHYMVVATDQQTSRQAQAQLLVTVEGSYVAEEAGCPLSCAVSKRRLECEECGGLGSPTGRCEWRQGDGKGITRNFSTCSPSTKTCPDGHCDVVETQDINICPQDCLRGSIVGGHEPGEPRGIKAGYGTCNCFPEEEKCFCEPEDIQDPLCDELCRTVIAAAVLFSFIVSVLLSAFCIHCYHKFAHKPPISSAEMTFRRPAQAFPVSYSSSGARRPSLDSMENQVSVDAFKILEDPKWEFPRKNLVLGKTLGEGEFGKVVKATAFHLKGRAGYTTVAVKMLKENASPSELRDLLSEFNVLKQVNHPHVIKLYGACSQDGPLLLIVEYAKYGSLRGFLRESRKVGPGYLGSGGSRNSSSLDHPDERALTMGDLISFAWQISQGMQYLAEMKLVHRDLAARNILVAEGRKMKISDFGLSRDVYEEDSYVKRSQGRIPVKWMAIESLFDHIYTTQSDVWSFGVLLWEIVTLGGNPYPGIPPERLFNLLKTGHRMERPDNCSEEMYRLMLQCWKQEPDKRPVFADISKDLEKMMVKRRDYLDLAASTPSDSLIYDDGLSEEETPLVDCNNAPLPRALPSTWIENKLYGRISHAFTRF
T1 sequence (P06213 958-1382 limits assumed): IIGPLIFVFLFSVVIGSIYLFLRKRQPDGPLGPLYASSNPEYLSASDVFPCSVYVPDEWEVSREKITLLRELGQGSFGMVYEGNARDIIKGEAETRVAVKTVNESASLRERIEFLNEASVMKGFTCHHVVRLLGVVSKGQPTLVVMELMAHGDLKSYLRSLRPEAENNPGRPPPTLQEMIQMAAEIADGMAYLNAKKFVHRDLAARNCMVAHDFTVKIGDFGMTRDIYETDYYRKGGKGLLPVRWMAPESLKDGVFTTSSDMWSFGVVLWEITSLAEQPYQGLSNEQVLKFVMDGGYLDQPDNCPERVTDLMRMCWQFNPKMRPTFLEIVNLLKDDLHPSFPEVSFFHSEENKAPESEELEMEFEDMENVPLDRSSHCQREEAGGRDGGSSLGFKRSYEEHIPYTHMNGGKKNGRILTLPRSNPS

With `Nc1cc(-c2ccccc2)nc2c(Br)cnn12` [Example 18, 3-Bromo-5-phenyl-pyrazolo[1,5-a]pyrimidin-7-ylamine], the pIC50 (at Cdk1/cycB; in assay [1]) was greater than 5.00 throughout.

For the compound `CN1CCN(c2ccc(-c3cnn4c(N)c(-c5ccc(O)cc5)cnc34)cc2)CC1` [Example 35, 4-{7-Amino-3-[4-(4-methyl-piperazin-1-yl)-phenyl]-pyrazolo[1,5-a]pyrimidin-6-yl}-phenol], the pIC50 against human RET and at c-Abl kinase was greater than 5.00 throughout.

`Cc1nn2c(N)c(-c3cccc(O)c3)cnc2c1-c1ccc(N2CCN(C)CC2)cc1` [Example 61a, 3-{7-Amino-2-methyl-3-[4-(4-methyl-piperazin-1-yl)phenyl]-pyrazolo[1,5-a]pyrimidin-6-yl}-phenol] gave a pIC50 against human RET greater than 5.00.
